Data set [1] is described as follows: Photostability of compound 1 under UV (xenon lamp) irradiation, HPLC/UV-DAD measurement. The conditions noted are these: for photodegradation protection of compound 1 (in words): Example 8, anionic and cationic surfactants; for % remaining (compound 1) / HPLC % remaining: 25 ppm compound 1 in water; for % remaining (compound 1): irradiated 120 min; for Time for complete degradation: compound 1 in water, HPLC % remaining reached 0. Format: physicochemical. How it is done: (§1) The photostability of compound 1 under UV irradiation was studied as follows.
(§2) The sample to be irradiated was introduced into a transparent glass bottle, placed on a plate and then subjected to irradiation with a xenon lamp (Xenon lamp Suntest XLS+, Atlas Material Testing Technology LLC). The lamp was set to 650 W/m^2, the temperature was kept constant at 45° C. and the plate was turned slowly in order to assure homogeneous UV-exposure of the entire sample. After a fixed interval, the sample was removed and the content of compound 1 remaining was measured by HPLC and Fluorimetry.
Firstly, a standard solution containing 26.44 mg caffeine in 11 LC-MS grade methanol was prepared. For samples containing 10 ppm of compound 1, the sample was placed in a vial, diluted to 500 μl and 50 μl of the standard solution was added; for samples containing 25 ppm of compound 1, the sample was placed in a vial, diluted to 400 μl and 200 μl of the standard solution was added. Each vial was protected from exposure to light by being wrapped in aluminium foil.
The relative content of compound 1 in irradiated samples was calculated against the non-irradiated reference (set at 100%) using an Agilent Technologies 1200 series HPLC equipped with a degasser G1379B, a binary pump G1312B (large-volume mixer was by-passed), a well-plate high performance autosampler G1367D, a thermostatted column compartment G1316B and a UV (DAD) detector G1315C. The column (ZORBAX Eclipse Plus C18 600Bar 2.1×100 mm, 1.8 μm (#959764-902) was set at 60° C.±0.1° C. Two solvents were used: Solvent “A” was formic acid 0.1% in water, ULC/MS, Biosolve (ready-mix cat.# 23244102); solvent “B” was formic acid 0.1% in acetonitrile, ULC/MS, Biosolve (ready-mix cat. #01934125). The solvent flow rate was 0.500 ml/min; Injection: 2 μl.
Solvent gradient: 0 min-1 min: 95% A • 1 min-8 min: 95% A à 100% B • 8 min-10 min: 100% B • 10 min-12 min: 100% B à 95% A • Post-equilibration 1 min
Detector: UV-DAD: • Caffeine (internal standard): signal 273 nm, Bw 16 • Compound 1: signal 264 nm, Bw 8 • signal 230 nm, Bw 8
The signal at 264 nm was used for the quantification calculations.

The nature of data set [2]: Photostability of compound 1 under UV (xenon lamp) irradiation, fluorimetry measurement. Format: physicochemical. As to conditions: 25 ppm compound 1 in water. The procedure:
as §1, §2
The sample to be studied was placed in quartz cell (width lcm). Fluorescence was detected at an angle 90° to the incident exciting beam using a Fluorolog-3 spectrofluorometer (Model FL3-22, Jobin Yvon-Spex Instruments SA, Inc). […] Excitation and emission spectra of each sample were provided.
For calibration, the excitation and emission spectra of compound 1 solutions were measured before and after irradiation. The intensity of the emission maximum of the unirradiated solution was given the value as 100%. The ratio between the intensities of emission maxima of irradiated and unirradiated samples was measured and the results calculated as a percentage.

Turning to `CCCCCCCCCCCCCCCC[N+](C)(C)C.[Br-]` [CTAB, Cetyl trimethylammonium bromide, reference compound], the “photodegradation protection of compound 1 (in words)” value in data set [1] is given as “little or no photodegradation protection”.

For `CCCNC(=O)C(C)(C)COc1cccc2c1C(N)=NS(=O)(=O)N2` [Compound 1], the “% remaining (compound 1)” value in data set [1] (Polysorbate 80 concentration 0.0001572 % w/w) was 0%; in data set [1] (Polysorbate 80 concentration 0.0002145 % w/w) it was 0%; in data set [1] (Polysorbate 80 concentration 0.001572 % w/w), 0%; in data set [1] (Polysorbate 80 concentration 0.008 % w/w), 0%; in data set [1] (Polysorbate 80 concentration 0.01 % w/w), 0%; in data set [1] (Polysorbate 80 concentration 0.05 % w/w), 6.55%. The “% remaining (compound 1)” value was 6.81% in data set [1] (Polysorbate 80 concentration 0.1 % w/w); 12.97% in data set [1] (Polysorbate 80 concentration 0.5 % w/w); 22.24% in data set [1] (Polysorbate 80 concentration 1 % w/w); 47% in data set [1] (Polysorbate 80 concentration 4 % w/w); 88.57% in data set [1] (Polysorbate 80 concentration 8.5 % w/w); 97.03% in data set [1] (Polysorbate 80 concentration 15 % w/w). For the same compound, the HPLC % remaining in data set [1] (time of irradiation 0 min (non-irradiated reference set at 100%)) amounted to 100%; in data set [1] (time of irradiation 5 min) it was 79.7%; in data set [1] (time of irradiation 10 min), 62.2%; in data set [1] (time of irradiation 20 min) it was 46.3%; in data set [1] (time of irradiation 30 min), 32.3%; in data set [1] (time of irradiation 45 min), 24.8%. Further, the HPLC % remaining came to 18.7% in data set [1] (time of irradiation 60 min), 6.9% in data set [1] (time of irradiation 90 min), 0% in data set [1] (time of irradiation 120 min) and 0% in data set [1] (time of irradiation 180 min). Besides, the “Time for complete degradation” value in data set [1] (initial concentration 5 ppm) is 45 min; in data set [1] (initial concentration 10 ppm), 60 min; in data set [1] (initial concentration 15 ppm) it was 90 min; in data set [1] (initial concentration 25 ppm), 120 min; in data set [1] (initial concentration 40 ppm), above 180 min. Further, the Fluorimetry % remaining in data set [2] (time of irradiation 0 min (unirradiated solution given the value 100%)) is 100%; in data set [2] (time of irradiation 5 min) it was 91.3%; in data set [2] (time of irradiation 10 min) it was 78.5%; in data set [2] (time of irradiation 20 min) it was 52.2%; in data set [2] (time of irradiation 30 min), 38.7%; in data set [2] (time of irradiation 45 min) it was 27.8%. For the same compound, the Fluorimetry % remaining in data set [2] (time of irradiation 60 min) is given as 21.3%; in data set [2] (time of irradiation 90 min) it was 16.2%; in data set [2] (time of irradiation 120 min), 12.7%; in data set [2] (time of irradiation 180 min) it was 6.4%.

For the compound `CCCCCCCCCCCCOS(=O)(=O)[O-].[Na+]` [SDS, Sodium dodecyl sulphate, reference compound], the “photodegradation protection of compound 1 (in words)” value in data set [1] is “little or no photodegradation protection”.

Source of the values: patent US20130064931A1, “INGREDIENT DELIVERY SYSTEM” (FIRMENICH SA, priority 2010, published 2013).
